Measured values published in publication PMC6934184, “Selective DNA-PKcs inhibition extends the therapeutic index of localized radiotherapy and chemotherapy” (The Journal of Clinical Investigation, 2019).

Target: T1, CHEK1 (CHK1) (Homo sapiens, UniProt O14757)
T1 construct: purchased Thermo Fisher Scientific (Life Technologies) SelectScreen
Assay: SelectScreen Z'LYTE
Type: biochemical
How it was run: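 Compound tested in SelectScreen activity assays, Z'LYTE for CSF1R, CDK1/cyclin B and MAP2K6 and Adapta for CAMK1. ATP for CAMK1 was listed as 10, and Km app was used for CSF1R. Results are expressed in percent.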

T1 sequence (O14757 whole entry): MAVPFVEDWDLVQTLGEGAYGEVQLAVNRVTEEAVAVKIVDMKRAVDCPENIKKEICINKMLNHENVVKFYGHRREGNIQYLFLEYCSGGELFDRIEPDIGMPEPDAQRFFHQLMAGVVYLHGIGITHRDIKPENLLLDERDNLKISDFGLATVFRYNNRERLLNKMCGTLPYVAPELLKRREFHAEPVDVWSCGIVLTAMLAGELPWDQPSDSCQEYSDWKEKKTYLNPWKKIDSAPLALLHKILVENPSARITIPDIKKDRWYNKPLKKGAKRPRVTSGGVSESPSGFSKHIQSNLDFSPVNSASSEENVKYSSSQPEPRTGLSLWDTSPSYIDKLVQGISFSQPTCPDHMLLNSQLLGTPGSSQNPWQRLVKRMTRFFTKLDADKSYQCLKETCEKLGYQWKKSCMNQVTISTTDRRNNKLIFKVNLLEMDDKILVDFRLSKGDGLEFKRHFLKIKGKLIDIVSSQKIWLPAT

Work on `CN(C(=O)CN1CCOCC1)c1ccc2sc3c(-c4cccc5c(=O)cc(N6CC7CCC(C6)O7)oc45)cccc3c2c1` [NU5455] yielded an inhibition at 1 µM of 9.3%.
